Assay results: ChEMBL document CHEMBL1140182, “Modeling binding modes of alpha7 nicotinic acetylcholine receptor with ligands: the roles of Gln117 and other residues of the receptor in agonist binding” (J Med Chem, 2008)

Legend:
[1] = target: T1, Neuronal acetylcholine receptor subunit alpha-7 (Homo sapiens, UniProt P36544); assay: Displacement of [125I]alpha-bungarotoxin from alpha7 nAChR
[2] = target: T1, Neuronal acetylcholine receptor subunit alpha-7; assay: Agonist activity at human cloned wild-type alpha7 nAChR expressed in Xenopus laevis oocytes assessed as channel opening by voltage clamp electrophysiology; type: functional, cell-based, Oocyte
[3] = Agonist activity at human cloned alpha7 nAChR Gln117Phe mutant expressed in Xenopus laevis oocytes assessed as channel opening by voltage clamp electrophysiology; type: functional, cell-based; settings: Oocyte

T1 sequence (P36544 whole entry): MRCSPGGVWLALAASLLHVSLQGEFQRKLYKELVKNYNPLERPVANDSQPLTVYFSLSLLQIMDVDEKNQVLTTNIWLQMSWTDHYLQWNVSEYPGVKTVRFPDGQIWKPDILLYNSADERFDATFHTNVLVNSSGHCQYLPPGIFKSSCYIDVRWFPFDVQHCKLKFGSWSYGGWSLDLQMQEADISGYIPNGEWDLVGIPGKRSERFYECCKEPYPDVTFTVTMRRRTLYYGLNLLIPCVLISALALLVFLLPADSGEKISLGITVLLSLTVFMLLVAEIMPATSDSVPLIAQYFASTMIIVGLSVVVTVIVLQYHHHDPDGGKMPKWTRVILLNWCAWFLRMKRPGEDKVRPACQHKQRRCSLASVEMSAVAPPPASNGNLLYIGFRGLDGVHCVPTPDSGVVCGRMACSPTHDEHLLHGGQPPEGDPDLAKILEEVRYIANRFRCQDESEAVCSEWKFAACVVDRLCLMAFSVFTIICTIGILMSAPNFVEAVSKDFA

| SMILES | Kd [1] [nM] | EC50 [2] [nM] | EC50 [3] [nM] |
| --- | --- | --- | --- |
| CCN1C[C@@]2(CN3CCC2CC3)OC1=O | 690 |  |  |
| O=C1NC[C@@]2(CN3CCC2CC3)O1 | 92 | 3600 | 22300 |
| COc1ccc(/C=C2\CCCN=C2c2cccnc2)c(OC)c1 [GTS-21] | 158 |  |  |
